Experimental data: ChEMBL document CHEMBL5380853, “Lead Optimization of Androgen Receptor-HSP27 Disrupting Agents in Glioblastoma” (J Med Chem, 2023)
The source made the active and inactive calls. No cut-off for these calls is given here.

Key:
[1] = target: Heat shock protein beta-1 (Homo sapiens) (UniProt P04792); experiment: Inhibition of HSP27 chaperone activity in human T98G cells expressing AR-V7 mutant assessed as down regulation of androgen receptor level at 25 to 100 nM by Western blotting analysis; type: cell-based; conditions: dose lower […], dose upper 100.0 nM
Chain of Heat shock protein beta-1 (Homo sapiens) (P04792 whole entry): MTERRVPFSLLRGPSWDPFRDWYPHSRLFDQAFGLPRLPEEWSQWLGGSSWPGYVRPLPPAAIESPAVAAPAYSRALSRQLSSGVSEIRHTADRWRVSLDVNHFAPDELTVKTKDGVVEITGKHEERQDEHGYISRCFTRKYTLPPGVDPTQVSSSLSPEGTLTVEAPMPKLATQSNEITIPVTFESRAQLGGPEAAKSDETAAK

T98G [2] = experiment: Down regulation of androgen receptor activity in AR-overexpressing human T98G cells at 50 nM measured after 12 hrs by Western blotting analysis; type: functional, cell-based
[3] = Toxicity in C57BL/6 mouse assessed as spleen histology by measuring intact/distinct spleen-follical at 100 mg/kg, ip treated for 10 days by hematoxylin and eosin staining based assay; type: organism-based; conditions: in vivo, 240 h, time 10 day
[4] = Apparent half life in mouse plasma at 20 mg/kg, ip measured for 24 hrs by LC-MS/MS analysis; type: ADME, organism-based; conditions: in vivo, ip, 20 mg/kg, 24 h
U-87 MG [5] = experiment: Antitumor activity against human U87 cells xenografted in mouse assessed as decrease in tumor size at 20 mg/kg, ip administered weekly 3 times for 14 days; type: functional, organism-based; conditions: U-87MG ATCC, time 14.0 day
[6] = Cmax in mouse brain at 20 mg/kg, ip measured for 24 hrs by LC-MS/MS analysis; type: ADME, organism-based; parameters: dose 20 mg/kg, time 24 hrs, route ip
T98G [7] = experiment: Down regulation of androgen receptor activity in AR-overexpressing human T98G cells at 100 nM measured after 12 hrs by Western blotting analysis; type: functional, cell-based
[8] = Toxicity in C57BL/6 mouse assessed as liver histology at 100 mg/kg, ip treated for 10 days by hematoxylin and eosin staining based assay; type: organism-based; conditions: in vivo, 240 h, time 10 day
[9] = target: Heat shock protein beta-1 (Homo sapiens) (UniProt P04792); experiment: Inhibition of HSP27 in AR-overexpressing human T98G cells assessed as androgen receptor degradation by measuring decrease in free cytoplasmic AR level at 50 nM measured after 12 hrs by immunofluorescence assay; type: cell-based
[10] = Toxicity in C57BL/6 mouse assessed as lung histology by measuring injury/fibrosis at 100 mg/kg, ip treated for 10 days by hematoxylin and eosin staining based assay; type: organism-based; conditions: in vivo, 240 h, time 10 day
[11] = Toxicity in C57BL/6 mouse assessed as physical condition at 100 mg/kg, ip treated for 10 days; type: organism-based; conditions: in vivo, 240 h, time 10 day
[12] = AUC (0 to infinity) in mouse brain at 20 mg/kg, ip measured for 24 hrs by LC-MS/MS analysis; type: ADME, organism-based; parameters: time 24 hrs, dose 20 mg/kg, route ip; conditions: in vivo
[13] = Toxicity in C57BL/6 mouse assessed as heart histology by measuring infarcts/inflammatory cell infiltration at 100 mg/kg, ip treated for 10 days by hematoxylin and eosin staining based assay; type: organism-based; conditions: in vivo, 240 h, time 10 day
[14] = AUC (0 to infinity) in mouse plasma at 20 mg/kg, ip measured for 24 hrs by LC-MS/MS analysis; type: ADME, organism-based; parameters: time 24 hrs, dose 20 mg/kg, route ip; conditions: in vivo
U-87 MG [15] = experiment: In vivo antitumor activity against human U87 cells xenografted in mouse assessed as decrease in AR protein level in tumor at 20 mg/kg, ip administered weekly 3 times for 14 days relative to control; type: functional, organism-based; conditions: U-87MG ATCC, time 14.0 day
[16] = target: Heat shock protein beta-1 (Homo sapiens) (UniProt P04792); experiment: Inhibition of HSP27 alpha-crystallin (unknown origin) activity assessed as DTT-induced insulin B chain aggregation at 10 uM measured upto 2 hrs by microplate reader-based HSP27 chaperone activity assay
U-87MG ATCC = experiment: Effect on nucleus AR level in AR-overexpressing human U87 cells at 50 nM measured after 12 hrs by immunofluorescence assay; type: functional, cell-based
[17] = Toxicity in mouse xenografted with human U87 cells assessed as body weight at 20 mg/kg, ip administered weekly 3 times for 14 days; type: organism-based, U-87MG ATCC; conditions: in vivo, 336 h, time 14 day
U-87 MG [18] = experiment: In vivo antitumor activity against human U87 cells xenografted in mouse assessed as decrease in tumor weight at 20 mg/kg, ip administered weekly 3 times for 14 days relative to control; type: functional, organism-based; conditions: U-87MG ATCC, time 14.0 day
T98G [19] = experiment: Effect on nucleus AR level in AR-overexpressing human T98G cells at 50 nM measured after 12 hrs by immunofluorescence assay; type: functional, cell-based
[20] = target: Heat shock protein beta-1 (Homo sapiens) (UniProt P04792); experiment: Inhibition of HSP27 in AR-overexpressing human U87 cells assessed as androgen receptor degradation by measuring decrease in free cytoplasmic AR level at 50 nM measured after 12 hrs by immunofluorescence assay; type: cell-based
[21] = AUC (0 to 24 hrs) in mouse plasma at 20 mg/kg, ip measured for 24 hrs by LC-MS/MS analysis; type: ADME, organism-based; parameters: dose 20 mg/kg, time 24 hrs, route ip; conditions: in vivo
[22] = Cmax in mouse plasma at 20 mg/kg, ip measured for 24 hrs by LC-MS/MS analysis; type: ADME, organism-based; parameters: time 24 hrs, dose 20 mg/kg, route ip; conditions: in vivo
[23] = AUC (0 to 24 hrs) in mouse brain at 20 mg/kg, ip measured for 24 hrs by LC-MS/MS analysis; type: ADME, organism-based; parameters: dose 20 mg/kg, time 24 hrs, route ip; conditions: in vivo
[24] = Toxicity in C57BL/6 mouse assessed as body weight change at 100 mg/kg, ip treated for 10 days; type: organism-based; conditions: in vivo, 240 h, time 10 day
[25] = target: Heat shock protein beta-1 (Homo sapiens) (UniProt P04792); experiment: Inhibition of HSP27 chaperone activity in AR-overexpressing human U87 cells assessed as down regulation of androgen receptor level at 25 to 100 nM by Western blotting analysis; type: cell-based; conditions: dose lower […], dose upper 100.0 nM
[26] = Apparent Half life in mouse brain at 20 mg/kg, ip measured for 24 hrs by LC-MS/MS analysis; type: ADME, organism-based; conditions: in vivo
[27] = target: Heat shock protein beta-1 (Homo sapiens) (UniProt P04792); experiment: Inhibition of HSP27 chaperone activity in AR-overexpressing human T98G cells assessed as down regulation of androgen receptor level at 25 to 100 nM by Western blotting analysis; type: cell-based; conditions: dose lower […], dose upper 100.0 nM
[28] = Toxicity in C57BL/6 mouse assessed as kidney histology by measuring necrosis/glomerular atrophy at 100 mg/kg, ip treated for 10 days by hematoxylin and eosin staining based assay; type: organism-based; conditions: in vivo, 240 h, time 10 day

Structure (SMILES) | inhibition [1] | Activity (T98G [2]) | Activity [3] | t1/2 [4] | Activity (U-87 MG [5]) | Activity (T98G [7]) | Activity [8] | inhibition [9] | Activity [10] | Activity [11] | AUC [12] | Activity [13] | AUC [14] | Activity (U-87 MG [15]) | inhibition [16] | Activity (U-87MG ATCC) | Activity [17] | Activity (U-87 MG [18]) | Activity (T98G [19]) | inhibition [20] | further results
COc1ccc(OC)c(COc2cc(NC(=O)c3ccc4ccccc4c3)ccc2NS(C)(=O)=O)c1 | Active | Active | Non-Toxic | 6.28 h | Active | Active | Non-Toxic | Active | Non-Toxic | Non-Toxic | 2.44 µg·h/g | Non-Toxic | 80840 ng·h/mL | Active | Active | inactive | Non-Toxic | Active | inactive | Active | Cmax ([6]; in vivo, 24 h): 0.76 µg/g; AUC [21]: 61920 ng·h/mL; Cmax [22]: 30620 ng/mL; AUC [23]: 1.34 µg·h/g; Activity [24]: Non-Toxic; inhibition [25]: Active; t1/2 [26]: 8.66 h; inhibition [27]: Active; Activity [28]: Non-Toxic
COc1ccc(OC)c(COc2cc(NC(=O)c3ccc4c(c3)OCO4)ccc2NS(C)(=O)=O)c1 | Active | Active | Non-Toxic | 1.49 h | Active | Active | Non-Toxic | Active | Non-Toxic | Non-Toxic | 0.62 µg·h/g | Non-Toxic | 32130 ng·h/mL | Active | Active | inactive | Non-Toxic | Active | inactive | Active | Cmax ([6]; brain, read-out: Cmax): 0.68 µg/g; AUC [21]: 20020 ng·h/mL; Cmax [22]: 20200 ng/mL; AUC [23]: 0.31 µg·h/g; Activity [24]: Non-Toxic; inhibition [25]: Active; t1/2 [26]: 0.57 h; inhibition [27]: Active; Activity [28]: Non-Toxic
